Measurements published in the supplement of paper PMC4862054.
Values joined by “and” are separate entries in the source; they are usually repeats but may differ in a detail not shown here. Equal values may be shown once.

Tests used:
Assay in all cases: normalised viability (% of control), CellTiter-Blue; higher = more viable cells (about 100 = DMSO control)
Conditions in all cases: incubation time: 72 h
CAL-51 [1] = test system: CAL-51
Description: (§1)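 DSRT, CellTiter-Blue viability, 72 h incubation. Signal is normalised to DMSO and benzethonium chloride controls. Value is the normalised response at dose 7.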

HDQ-P1 [2] = test system: HDQ-P1
Description: as §1

CAL-148 [3] = test system: CAL-148
Description: as §1

MDA-MB-453 [4] = test system: MDA-MB-453
Description: as §1

DU-4475 [5] = test system: DU-4475
Description: as §1

CAL-85-1 [6] = test system: CAL-85-1
Description: as §1

CAL-51 [7] = test system: CAL-51; remark: listed apart in the source
Description: (§2)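 DSRT, CellTiter-Blue viability, 72 h incubation. Signal is normalised to DMSO and benzethonium chloride controls. Value is the normalised response at dose 8.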

HDQ-P1 [8] = test system: HDQ-P1; remark: listed apart in the source
Description: as §2

CAL-148 [9] = test system: CAL-148; remark: listed apart in the source
Description: as §2

MDA-MB-453 [10] = test system: MDA-MB-453; remark: listed apart in the source
Description: as §2

DU-4475 [11] = test system: DU-4475; remark: listed apart in the source
Description: as §2

CAL-85-1 [12] = test system: CAL-85-1; remark: listed apart in the source
Description: as §2

CAL-51 [13] = test system: CAL-51; remark: listed apart in the source
Description: (§3)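 DSRT, CellTiter-Blue viability, 72 h incubation. Signal is normalised to DMSO and benzethonium chloride controls. Value is the normalised response at dose 6.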

HDQ-P1 [14] = test system: HDQ-P1; remark: listed apart in the source
Description: as §3

CAL-148 [15] = test system: CAL-148; remark: listed apart in the source
Description: as §3

MDA-MB-453 [16] = test system: MDA-MB-453; remark: listed apart in the source
Description: as §3

DU-4475 [17] = test system: DU-4475; remark: listed apart in the source
Description: as §3

CAL-85-1 [18] = test system: CAL-85-1; remark: listed apart in the source
Description: as §3

SMILES	normalised viability (CAL-51 [7])	normalised viability (HDQ-P1 [8])	normalised viability (CAL-148 [9])	normalised viability (MDA-MB-453 [10])	normalised viability (DU-4475 [11])	normalised viability (CAL-85-1 [12])	other results
Cc1cc(Nc2cc(CN3CCOCC3)c3nc(C)c(Cc4ccc(Cl)cc4F)n3n2)n[nH]1 (1000 nM)	–	–	–	–	–	–	normalised viability (CAL-51 [1]): 85.8%; normalised viability (HDQ-P1 [2]): 72.5%; normalised viability (CAL-148 [3]): 94.6%; normalised viability (MDA-MB-453 [4]): 53.3%; normalised viability (DU-4475 [5]): 94%; normalised viability (CAL-85-1 [6]): 86.5%
Cc1cc(Nc2cc(CN3CCOCC3)c3nc(C)c(Cc4ccc(Cl)cc4F)n3n2)n[nH]1 (3000 nM)	38.2%	35.5%	76.1%	60.7%	52.4%	59.4%	–
N#Cc1ccc(COC[C@H]2O[C@@H](n3c(NCc4ccc(Cl)c(Cl)c4)nc4c(N)ncnc43)[C@H](O)[C@@H]2O)cc1 (3000 nM)	99.3%	89.5%	87.7%	96%	82.7%	93%	–
COc1cc(OC2CCN(C)CC2)ccc1Nc1ncc2c(n1)n(C1CCCC1)c(=O)n2C [AZ 3146] (3000 nM)	28%	72.4%	43.5%	69.6%	89%	84.5%	–
CN(C)c1nc(N(C)C)nc(N(C)C)n1 [Altretamine] (3000 nM)	114%	99.9%	97%	108%	115%	97.8%	–
COC(=O)c1ccc2c(c1)NC(=O)/C2=C(\Nc1ccc(N(C)C(=O)CN2CCN(C)CC2)cc1)c1ccccc1 [BIBF 1120] (1000 nM)	–	–	–	–	–	–	normalised viability (CAL-51 [1]): 68.2%; normalised viability (HDQ-P1 [2]): 119%; normalised viability (CAL-148 [3]): 99%; normalised viability (MDA-MB-453 [4]): 78.2%; normalised viability (DU-4475 [5]): 96.8%; normalised viability (CAL-85-1 [6]): 111%
COC(=O)c1ccc2c(c1)NC(=O)/C2=C(\Nc1ccc(N(C)C(=O)CN2CCN(C)CC2)cc1)c1ccccc1 [BIBF 1120] (3000 nM)	62.7%	91%	94.8%	59.8%	97.1%	91.1%	–
Nc1cc(C(F)(F)F)c(-c2cc(N3CCOCC3)nc(N3CCOCC3)n2)cn1 [BKM-120] (1000 nM)	–	–	–	–	–	–	normalised viability (CAL-51 [1]): 56.9%; normalised viability (HDQ-P1 [2]): 63.2%; normalised viability (CAL-148 [3]): 83.7%; normalised viability (MDA-MB-453 [4]): 32.4%; normalised viability (DU-4475 [5]): 92.9%; normalised viability (CAL-85-1 [6]): 58.3%
Nc1cc(C(F)(F)F)c(-c2cc(N3CCOCC3)nc(N3CCOCC3)n2)cn1 [BKM-120] (3000 nM)	10.4%	27.7%	18.8%	11.9%	38%	27.3%	–
O=C(/C=C/c1cccc(S(=O)(=O)Nc2ccccc2)c1)NO [Belinostat] (3000 nM)	9.77%	39.1%	3.16%	2.18%	1.84%	16.4%	–
O=P1(N(CCCl)CCCl)NCCCO1 (centres undefined) [Cyclophosphamide] (12000 nM)	105%	110%	97.2%	109%	104%	93.7%	–
C=C1C[C@@H]2[C@H](CC[C@]3(C)C(=O)CC[C@@H]23)[C@@]2(C)C=CC(=O)C=C12 [Exemestane] (3000 nM)	110%	92.4%	104%	79%	106%	90.7%	–
COc1cc2ncnc(Nc3ccc(F)c(Cl)c3)c2cc1OCCCN1CCOCC1 [Gefitinib] (3000 nM)	96.4% and 96.1%	77% and 86.2%	76% and 67.1%	79.3% and 69.5%	101%	55.9% and 54%	–
O=C(Nc1ccncc1)C(=O)c1cn(Cc2ccc(Cl)cc2)c2ccccc12 [Indibulin] (3000 nM)	25.5%	54.7%	83.8%	39.5%	22.6%	39.7%	–
NC(=O)c1ccc(I)c([N+](=O)[O-])c1 [Iniparib] (3000 nM)	93.8%	93.9%	97%	85.1%	88.1%	84.5%	–
CCc1c2c(nc3ccc(OC(=O)N4CCC(N5CCCCC5)CC4)cc13)-c1cc3c(c(=O)n1C2)COC(=O)[C@]3(O)CC [Irinotecan] (3000 nM)	49.9% and 64.2%	–	28% and 42%	73.3% and 90.7%	44.3% and 57.5%	63.7% and 73.4%	–
Oc1ccc2c(c1)CC[C@H](c1ccccc1)[C@@H]2c1ccc(OCCN2CCCC2)cc1 [Lasofoxifene] (300 nM)	109%	102%	98.2%	104%	96.4%	96.8%	–
Cc1ccc(NC(=O)c2ccc(CN3CCN(C)CC3)cc2)cc1Nc1nc(-c2cccnc2)cs1 [Masitinib] (3000 nM)	115%	103%	74.8%	65.5%	125%	94%	–
O=C(Nc1cccnc1)N1CCC(Cc2cccc(Oc3ccc(C(F)(F)F)cn3)c2)CC1 [PF-3845] (300 nM)	–	–	–	–	–	–	normalised viability (CAL-51 [13]): 97.9%; normalised viability (HDQ-P1 [14]): 127%; normalised viability (CAL-148 [15]): 103%; normalised viability (MDA-MB-453 [16]): 98.4%; normalised viability (DU-4475 [17]): 95.4%; normalised viability (CAL-85-1 [18]): 93%
O=C(Nc1cccnc1)N1CCC(Cc2cccc(Oc3ccc(C(F)(F)F)cn3)c2)CC1 [PF-3845] (3000 nM)	93.2%	122%	97.9%	62.1%	93.9%	93.9%	–
